System: pepper cells
Assay: Hygromycin sensitivity of pepper cells (growth of hypocotyl explants on SIM medium)
Type: cell-based, Capsicum annuum L. (pepper)
Description: The sensitivity of untransformed wild type (WT) and transformed (T) hypocotyl explants to hygromycin B was examined by using shoot induction medium containing 0, 5, 10, 20, 50 mg/l of hygromycin B (A). Fresh weight (mg) of hypocotyl explants growing on the medium containing hygromycin B (B).
Selection of transgenic cells was preformed in medium containing 20 mg/l hygromycin B in all experiments.

Compound: CN[C@H]1C[C@@H](N)[C@H](O)[C@@H](O[C@@H]2O[C@H](CO)[C@H](O)[C@@H]3OC4(O[C@H]23)O[C@H]([C@@H](N)CO)[C@H](O)[C@H](O)[C@H]4O)[C@@H]1O (some centres unmarked) [hygromycin B]
- effect on the growth of pepper cells (hygromycin B 5 mg/l in SIM medium, after 14 days of culture): severe inhibitory effect
- hygromycin B concentration up to which transgenic cells showed resistance (transgenic (transformed) pepper cells on SIM medium): up to 50 mg/l

From US20060037100A1, “Fungal resistant transgenic pepper plants and their production method” (priority 2004, published 2006)
